*1 amine or outer side, *2 acyl side, *3 side chain or, on linkers, in order; H or OH if unused. Where a SMILES comes first, the peptide text is derived from it. Bridges are numbered along the chain shown (N, C = ends). [ ]: non-standard residue; d: D form. The star is where a group is joined. hPhe(3-Cl-4-CF3) = N[C@@H](CCc1ccc(C(F)(F)F)c(Cl)c1)C(=O)O; X2 = CCCN([C@@H](COC1CCC1)C(=O)[*:2])[*:1]; NMeGly(cPent) = CN[C@H](C(=O)O)C1CCCC1; NMeD = CN[C@@H](CC(=O)O)C(=O)O; NMeL = CN[C@@H](CC(C)C)C(=O)O; Morpholide = C1CN(*)CCO1; NMeA = CN[C@@H](C)C(=O)O; Aze = O=C(O)[C@@H]1CCN1; Ac4c = NC1(C(=O)O)CCC1; Sar = CNCC(=O)O
What was measured:
[1] = molecular target: GDP-bound NRAS wild-type protein (Homo sapiens, UniProt P01111); test: Binding to NRAS by surface plasmon resonance (SPR), Single Cycle Kinetics; conditions: ratio of KD for GDP-bound NRAS wild-type protein to KD for KRAS, SPR
[2] = test system: human lung cancer strain NCI-H441; test: cells; conditions: NCI-H441, 96 h, read-out: NCI-H441 IC50 (nM), NCI-H441 cell proliferation, 4 days, CellTiter-Glo;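 note: cell proliferation inhibition after four days measured by CellTiter-Glo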
[3] = molecular target: GDP-bound KRAS wild-type protein (Homo sapiens, UniProt P01116); test: Binding to KRAS by surface plasmon resonance (SPR), Single Cycle Kinetics; conditions: SPR, Single Cycle Kinetics, GDP-bound KRAS wild-type protein; read-out: KRAS KD
[4] = molecular target: GDP-bound HRAS wild-type protein (Homo sapiens, UniProt P01112); test: Binding to HRAS by surface plasmon resonance (SPR), Single Cycle Kinetics; conditions: ratio of KD for GDP-bound HRAS wild-type protein to KD for KRAS, SPR
GDP-bound HRAS wild-type protein, sequence (P01112 whole entry): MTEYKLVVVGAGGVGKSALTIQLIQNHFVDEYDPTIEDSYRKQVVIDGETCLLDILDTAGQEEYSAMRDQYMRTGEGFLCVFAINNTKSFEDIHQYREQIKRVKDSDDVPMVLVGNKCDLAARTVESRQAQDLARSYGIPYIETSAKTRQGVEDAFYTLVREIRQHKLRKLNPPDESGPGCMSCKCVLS

GDP-bound KRAS wild-type protein, sequence (P01116 whole entry): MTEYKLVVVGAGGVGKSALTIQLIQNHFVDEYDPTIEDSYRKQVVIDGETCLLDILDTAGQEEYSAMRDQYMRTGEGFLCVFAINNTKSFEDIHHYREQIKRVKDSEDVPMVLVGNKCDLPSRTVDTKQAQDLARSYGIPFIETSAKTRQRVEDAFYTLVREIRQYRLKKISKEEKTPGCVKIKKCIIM
GDP-bound NRAS wild-type protein, sequence (P01111 whole entry): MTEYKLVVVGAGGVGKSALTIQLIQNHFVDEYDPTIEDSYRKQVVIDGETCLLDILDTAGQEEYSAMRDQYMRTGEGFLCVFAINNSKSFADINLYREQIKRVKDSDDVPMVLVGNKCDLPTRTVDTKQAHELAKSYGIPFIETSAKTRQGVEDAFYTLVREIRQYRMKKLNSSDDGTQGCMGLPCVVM

CCCN1C(=O)[C@@H]2CCN2C(=O)[C@H](C)N(C)C(=O)[C@H]([C@@H](C)CC)NC(=O)[C@H](CC(C)C)N(C)C(=O)C[C@@H](C(=O)N2CCOCC2)N(C)C(=O)[C@H](C2CCCC2)N(C)C(=O)C2(CCC2)NC(=O)[C@@H]2CCCN2C(=O)[C@H](CCc2ccc(C(F)(F)F)c(Cl)c2)NC(=O)CN(C)C(=O)[C@@H]1COC1CCC1 [PP1818] ([NMeL]I[NMeA][Aze][X2][Sar][hPhe(3-Cl-4-CF3)]P[Ac4c][NMeGly(cPent)][NMeD]-Morpholide; lactam N-11)
NRAS/KRAS (KD ratio) [1]: C (A compound having a KD ratio of 0.1 or more and less than 3 is denoted as C)
IC50 [2]: 74.8 nM
Kd [3]: 0.9 nM
HRAS/KRAS (KD ratio) [4]: B (a compound having 3 or more and less than 10 is denoted as B)

CCO[C@@H]1C[C@H]2C(=O)NC3(CCC3)C(=O)N(C)[C@@H](C3CCCC3)C(=O)N(C)[C@H](C(=O)N(C)C)CC(=O)N(C)[C@@H](CC)C(=O)N[C@@H]([C@@H](C)CC)C(=O)N(C)CC(=O)N(C)[C@H]3C/C=C\CCN(C3=O)[C@@H](Cc3ccc(C(F)(F)F)cc3)C(=O)N(C)CC(=O)N[C@@H](CCc3cc(C)c(Cl)c(C)c3)C(=O)N2C1 [PP1821]
NRAS/KRAS (KD ratio) [1]: A (a compound having 10 or more and less than 20 is denoted as A)
IC50 [2]: 105 nM
Kd [3]: 0.63 nM
HRAS/KRAS (KD ratio) [4]: A (a compound having 10 or more and less than 20 is denoted as A)

CC[C@H](C)[C@@H]1NC(=O)[C@H](CC)N(C)C(=O)C[C@@H](C(=O)N(C)C)N(C)C(=O)[C@H](C2CCCC2)N(C)C(=O)C2(CCC2)NC(=O)[C@@H]2CCCN2C(=O)[C@H](CCc2cc(C)c(Cl)c(C)c2)NC(=O)CN(C)C(=O)[C@H](Cc2ccc(C(F)(F)F)cc2)N2CC/C=C\C[C@@H](C2=O)N(C)C(=O)CN(C)C1=O [PP1822]
NRAS/KRAS (KD ratio) [1]: A (a compound having 10 or more and less than 20 is denoted as A)
IC50 [2]: 107 nM
Kd [3]: 1.1 nM
HRAS/KRAS (KD ratio) [4]: B (a compound having 3 or more and less than 10 is denoted as B)

CCO[C@@H]1C[C@H]2C(=O)NC3(CCCC3)C(=O)N(C)[C@@H](C3CCCC3)C(=O)N(C)[C@H](C(=O)N(C)C)CC(=O)N(C)[C@@H](CC)C(=O)N[C@@H]([C@@H](C)CC)C(=O)N(C)CC(=O)N(C)[C@H]3C/C=C\CCN(C3=O)[C@@H](Cc3ccc(C(F)(F)F)cc3)C(=O)N(C)CC(=O)N[C@@H](CCc3cc(C)c(Cl)c(C)c3)C(=O)N2C1 [PP1823]
NRAS/KRAS (KD ratio) [1]: A (a compound having 10 or more and less than 20 is denoted as A)
IC50 [2]: 55.9 nM
Kd [3]: 1 nM
HRAS/KRAS (KD ratio) [4]: A (a compound having 10 or more and less than 20 is denoted as A)

CCCN1C(=O)C[C@@H](C(=O)N(C)C)N(C)C(=O)[C@H](C2CCCC2)N(C)C(=O)C2(CCC2)NC(=O)[C@@H]2C[C@@H](OCC)CN2C(=O)[C@H](CCc2cc(F)c(C(F)(F)F)c(F)c2)NC(=O)CN(C)C(=O)[C@H](Cc2ccc(C(F)(F)F)cc2)N2CC/C=C\C[C@@H](C2=O)N(C)C(=O)CNC(=O)[C@H]([C@@H](C)CC)NC(=O)[C@@H]1CC(C)C [PP1826]
NRAS/KRAS (KD ratio) [1]: A (a compound having 10 or more and less than 20 is denoted as A)
IC50 [2]: 17.6 nM
Kd [3]: 0.32 nM
HRAS/KRAS (KD ratio) [4]: A (a compound having 10 or more and less than 20 is denoted as A)

CC[C@H](C)[C@@H]1NC(=O)[C@H](CC)N(C)C(=O)C[C@@H](C(=O)N(C)C)N(C)C(=O)[C@H](C2CCCC2)N(C)C(=O)C2(CC(C)(C)C2)NC(=O)[C@@H]2C[C@H](C)CN2C(=O)[C@H](CCc2ccc(C(F)(F)F)c(OC)c2)NC(=O)CN(C)C(=O)[C@H](Cc2ccc(C)cc2)N2CC/C=C\C[C@@H](C2=O)N(C)C(=O)CN(C)C1=O [PP1836]
NRAS/KRAS (KD ratio) [1]: A (a compound having 10 or more and less than 20 is denoted as A)
IC50 [2]: 10.7 nM
Kd [3]: 0.1 nM
HRAS/KRAS (KD ratio) [4]: B (a compound having 3 or more and less than 10 is denoted as B)

CC[C@H](C)[C@@H]1NC(=O)[C@H](CC(F)F)N(C)C(=O)C[C@@H](C(=O)N(C)CC)N(C)C(=O)[C@H](C2CCCC2)N(C)C(=O)C2(CC(C)(C)C2)NC(=O)[C@@H]2C[C@@H](C)CN2C(=O)[C@H](CCc2ccc(C(F)(F)F)c(Cl)c2)NC(=O)CN(C)C(=O)[C@H](Cc2ccc(C)cc2)N2CC/C=C\C[C@@H](C2=O)N(C)C(=O)CN(C)C1=O [PP1837]
NRAS/KRAS (KD ratio) [1]: A (a compound having 10 or more and less than 20 is denoted as A)
IC50 [2]: 15.6 nM
Kd [3]: 0.2 nM
HRAS/KRAS (KD ratio) [4]: A (a compound having 10 or more and less than 20 is denoted as A)

CC[C@H](C)[C@@H]1NC(=O)[C@H](CC)N(C)C(=O)C[C@@H](C(=O)N(C)C)N(C)C(=O)[C@H](C2CCCC2)N(C)C(=O)C2(CC(C)(C)C2)NC(=O)[C@@H]2C[C@@H](C)CN2C(=O)[C@H](CCc2ccc(C(F)(F)F)c(OC)c2)NC(=O)CN(C)C(=O)[C@H](Cc2ccc(C)cc2)N2CC/C=C\C[C@@H](C2=O)N(C)C(=O)CN(C)C1=O [PP1838]
NRAS/KRAS (KD ratio) [1]: A (a compound having 10 or more and less than 20 is denoted as A)
IC50 [2]: 20 nM
Kd [3]: 0.1 nM
HRAS/KRAS (KD ratio) [4]: A (a compound having 10 or more and less than 20 is denoted as A)

CC[C@H](C)[C@@H]1NC(=O)[C@H](CC)N(C)C(=O)C[C@@H](C(=O)N(CC)CC)N(C)C(=O)[C@H](C2CCCC2)N(C)C(=O)C2(CC(C)(C)C2)NC(=O)[C@@H]2C[C@H](C)CN2C(=O)[C@H](CCc2ccc(C(F)(F)F)c(OC)c2)NC(=O)CN(C)C(=O)[C@H](Cc2ccc(C)cc2)N2CC/C=C\C[C@@H](C2=O)N(C)C(=O)CN(C)C1=O [PP1839]
NRAS/KRAS (KD ratio) [1]: A (a compound having 10 or more and less than 20 is denoted as A)
IC50 [2]: 24.3 nM
Kd [3]: 0.31 nM
HRAS/KRAS (KD ratio) [4]: B (a compound having 3 or more and less than 10 is denoted as B)

CC[C@H](C)[C@@H]1NC(=O)[C@H](CC)N(C)C(=O)C[C@@H](C(=O)N(CC)CC)N(C)C(=O)[C@H](C2CCCC2)N(C)C(=O)C2(CC(C)(C)C2)NC(=O)[C@@H]2C[C@@H](C)CN2C(=O)[C@H](CCc2ccc(C(F)(F)F)c(OC)c2)NC(=O)CN(C)C(=O)[C@H](Cc2ccc(C)cc2)N2CC/C=C\C[C@@H](C2=O)N(C)C(=O)CN(C)C1=O [PP1841]
NRAS/KRAS (KD ratio) [1]: AA (a compound having 20 or more is denoted as AA)
IC50 [2]: 24.3 nM
Kd [3]: 0.38 nM
HRAS/KRAS (KD ratio) [4]: A (a compound having 10 or more and less than 20 is denoted as A)

CC[C@H](C)[C@@H]1NC(=O)[C@H](CC)N(C)C(=O)C[C@@H](C(=O)N(C)C)N(C)C(=O)[C@H](C2CCCC2)N(C)C(=O)C2(CC(C)(C)C2)NC(=O)[C@@H]2C[C@H](C)CN2C(=O)[C@H](CCc2ccc(C(F)(F)F)c(Cl)c2)NC(=O)CN(C)C(=O)[C@H](Cc2ccc(C)cc2)N2CC/C=C\C[C@@H](C2=O)N(C)C(=O)CN(C)C1=O [PP1844]
NRAS/KRAS (KD ratio) [1]: A (a compound having 10 or more and less than 20 is denoted as A)
IC50 [2]: 12.3 nM
Kd [3]: 0.07 nM
HRAS/KRAS (KD ratio) [4]: B (a compound having 3 or more and less than 10 is denoted as B)

CC[C@H](C)[C@@H]1NC(=O)[C@H](CC(C)C)N(C)C(=O)C[C@@H](C(=O)N(C)C)N(C)C(=O)[C@H](C2CCCC2)N(C)C(=O)C2(CCC2)NC(=O)[C@@H]2C[C@@H](C)CN2C(=O)[C@H](CCc2ccc(C(F)(F)F)c(Cl)c2)NC(=O)CN(C)C(=O)[C@H](Cc2ccc(C)cc2)N2CC/C=C\C[C@@H](C2=O)N(C)C(=O)CN(C)C1=O [PP1854]
NRAS/KRAS (KD ratio) [1]: A (a compound having 10 or more and less than 20 is denoted as A)
IC50 [2]: 5.2 nM
Kd [3]: 0.096 nM
HRAS/KRAS (KD ratio) [4]: A (a compound having 10 or more and less than 20 is denoted as A)

Source: patent publication US20240158446A1, “CYCLIC COMPOUND HAVING SELECTIVE INHIBITORY ACTION ON KRAS OVER HRAS AND NRAS” (CHUGAI SEIYAKU KABUSHIKI KAISHA, priority 2021, published 2024)
